PubChem BioAssay (NCI)
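Step 1: Grow cells in 96-well plates. Step 2: Expose to compound for 48 hours at 5 concentrations. Step 3: Interpolate endpoints linearly; if unreached, use highest concentration. The concentration for full growth arrest is given as TGI.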

Legend:
Assay in all cases: DTP human tumour cell line panel, 48 h
T-47D breast = tested on: T-47D breast
M14 melanoma = tested on: M14 melanoma
COLO 205 colon = tested on: COLO 205 colon
UACC-257 melanoma = tested on: UACC-257 melanoma
UACC-62 melanoma = tested on: UACC-62 melanoma
TK-10 renal = tested on: TK-10 renal
UO-31 renal = tested on: UO-31 renal
OVCAR-3 ovarian = tested on: OVCAR-3 ovarian
A549 NSCLC = tested on: A549 NSCLC
OVCAR-4 ovarian = tested on: OVCAR-4 ovarian
SNB-19 CNS = tested on: SNB-19 CNS
MDA-MB-231 breast = tested on: MDA-MB-231 breast
SW-620 colon = tested on: SW-620 colon
OVCAR-5 ovarian = tested on: OVCAR-5 ovarian
DU-145 prostate = tested on: DU-145 prostate
SF-539 CNS = tested on: SF-539 CNS
EKVX NSCLC = tested on: EKVX NSCLC
SK-MEL-2 melanoma = tested on: SK-MEL-2 melanoma
ACHN renal = tested on: ACHN renal
U251 CNS = tested on: U251 CNS
SK-MEL-5 melanoma = tested on: SK-MEL-5 melanoma
OVCAR-8 ovarian = tested on: OVCAR-8 ovarian
NCI/ADR-RES ovarian = tested on: NCI/ADR-RES ovarian
MALME-3M melanoma = tested on: MALME-3M melanoma
PC-3 prostate = tested on: PC-3 prostate
HT29 colon = tested on: HT29 colon
SN12C renal = tested on: SN12C renal
SK-MEL-28 melanoma = tested on: SK-MEL-28 melanoma
MDA-MB-435 = tested on: MDA-MB-435
HOP-62 NSCLC = tested on: HOP-62 NSCLC
LOX IMVI melanoma = tested on: LOX IMVI melanoma
786-0 renal = tested on: 786-0 renal
RPMI-8226 leukemia = tested on: RPMI-8226 leukemia
SNB-75 CNS = tested on: SNB-75 CNS
SK-OV-3 ovarian = tested on: SK-OV-3 ovarian
MCF7 breast = tested on: MCF7 breast
MDA-N = tested on: MDA-N
SF-295 CNS = tested on: SF-295 CNS
NCI-H460 lung = tested on: NCI-H460 lung
CAKI-1 renal = tested on: CAKI-1 renal
HOP-92 NSCLC = tested on: HOP-92 NSCLC
NCI-H226 lung = tested on: NCI-H226 lung
A498 renal = tested on: A498 renal
CCRF-CEM leukemia = tested on: CCRF-CEM leukemia
NCI-H522 lung = tested on: NCI-H522 lung
HL-60(TB) leukemia = tested on: HL-60(TB) leukemia
KM12 colon = tested on: KM12 colon
MOLT-4 leukemia = tested on: MOLT-4 leukemia
K-562 leukemia = tested on: K-562 leukemia
IGROV1 ovarian = tested on: IGROV1 ovarian
BT-549 breast = tested on: BT-549 breast
HS 578T breast = tested on: HS 578T breast
RXF 393 renal = tested on: RXF 393 renal
HCT-15 colon = tested on: HCT-15 colon
HCC-2998 colon = tested on: HCC-2998 colon
HCT-116 colon = tested on: HCT-116 colon
SF-268 CNS = tested on: SF-268 CNS
NCI-H23 lung = tested on: NCI-H23 lung
SR leukemia = tested on: SR leukemia

With `O=C(Nc1ccccc1)c1cc(S(=O)(=O)Nc2nc3ncccc3[nH]2)c(SSc2cc(Cl)c(C(=O)Nc3ccccc3)cc2S(=O)(=O)Nc2nc3ncccc3[nH]2)cc1Cl` the TGI (T-47D breast) was over 100 µM, the TGI (M14 melanoma) was over 100 µM and the TGI (COLO 205 colon) was over 100 µM. For the same compound, the TGI (UACC-257 melanoma) was over 100 µM, the TGI (UACC-62 melanoma) was over 100 µM and the TGI (TK-10 renal) was over 100 µM. For the same compound, the TGI (UO-31 renal) was over 100 µM, the TGI (OVCAR-3 ovarian) was over 100 µM and the TGI (A549 NSCLC) was over 100 µM. It also gave a TGI (OVCAR-4 ovarian) of over 100 µM, a TGI (SNB-19 CNS) of over 100 µM and a TGI (MDA-MB-231 breast) of over 100 µM. The TGI (SW-620 colon) was over 100 µM, the TGI (OVCAR-5 ovarian) was over 100 µM and the TGI (DU-145 prostate) was over 100 µM. The TGI (SF-539 CNS) was over 100 µM, the TGI (EKVX NSCLC) was over 100 µM and the TGI (SK-MEL-2 melanoma) was over 100 µM. For the same compound, the TGI (ACHN renal) was over 100 µM, the TGI (U251 CNS) was over 100 µM and the TGI (SK-MEL-5 melanoma) was over 100 µM. For the same compound, the TGI (OVCAR-8 ovarian) was over 100 µM, the TGI (NCI/ADR-RES ovarian) was over 100 µM and the TGI (MALME-3M melanoma) was over 100 µM. The TGI (PC-3 prostate) was over 100 µM, the TGI (HT29 colon) was over 100 µM and the TGI (SN12C renal) was over 100 µM. For the same compound, the TGI (SK-MEL-28 melanoma) was over 100 µM, the TGI (MDA-MB-435) was over 100 µM and the TGI (HOP-62 NSCLC) was over 100 µM. The TGI (LOX IMVI melanoma) was over 100 µM, the TGI (786-0 renal) was over 100 µM and the TGI (RPMI-8226 leukemia) was over 100 µM. It also gave a TGI (SNB-75 CNS) of over 100 µM, a TGI (SK-OV-3 ovarian) of over 100 µM and a TGI (MCF7 breast) of over 100 µM. It also gave a TGI (MDA-N) of over 100 µM, a TGI (SF-295 CNS) of over 100 µM and a TGI (NCI-H460 lung) of over 100 µM. It also gave a TGI (CAKI-1 renal) of over 100 µM, a TGI (HOP-92 NSCLC) of over 100 µM and a TGI (NCI-H226 lung) of over 100 µM. The TGI (A498 renal) was over 100 µM, the TGI (CCRF-CEM leukemia) was over 100 µM and the TGI (NCI-H522 lung) was over 100 µM. The TGI (HL-60(TB) leukemia) was over 100 µM, the TGI (KM12 colon) was over 100 µM and the TGI (MOLT-4 leukemia) was over 100 µM. The TGI (K-562 leukemia) was over 100 µM, the TGI (IGROV1 ovarian) was over 100 µM and the TGI (BT-549 breast) was over 100 µM. The TGI (HS 578T breast) was over 100 µM, the TGI (RXF 393 renal) was over 100 µM and the TGI (HCT-15 colon) was over 100 µM. For the same compound, the TGI (HCC-2998 colon) was over 100 µM, the TGI (HCT-116 colon) was over 100 µM and the TGI (SF-268 CNS) was over 100 µM. The TGI (NCI-H23 lung) was over 100 µM.
`O=C(/C=C(\N=P(c1ccccc1)(c1ccccc1)c1ccccc1)C(F)(F)C(F)(F)C(F)(F)C(F)(F)C(F)(F)C(F)(F)C(F)(F)F)c1ccccc1` gave a TGI (T-47D breast) of over 100 µM, a TGI (M14 melanoma) of over 100 µM and a TGI (COLO 205 colon) of over 100 µM. For the same compound, the TGI (UACC-257 melanoma) was over 100 µM, the TGI (UACC-62 melanoma) was over 100 µM and the TGI (TK-10 renal) was over 100 µM. It also gave a TGI (UO-31 renal) of over 100 µM, a TGI (OVCAR-3 ovarian) of over 100 µM and a TGI (A549 NSCLC) of over 100 µM. The TGI (OVCAR-4 ovarian) was over 100 µM, the TGI (SNB-19 CNS) was over 100 µM and the TGI (SW-620 colon) was over 100 µM. It also gave a TGI (OVCAR-5 ovarian) of over 100 µM, a TGI (DU-145 prostate) of over 100 µM and a TGI (SF-539 CNS) of over 100 µM. For the same compound, the TGI (SK-MEL-2 melanoma) was over 100 µM, the TGI (ACHN renal) was over 100 µM and the TGI (U251 CNS) was over 100 µM. For the same compound, the TGI (SK-MEL-5 melanoma) was over 100 µM, the TGI (NCI/ADR-RES ovarian) was over 100 µM and the TGI (MALME-3M melanoma) was over 100 µM. The TGI (PC-3 prostate) was over 100 µM, the TGI (HT29 colon) was over 100 µM and the TGI (SN12C renal) was over 100 µM. It also gave a TGI (SK-MEL-28 melanoma) of over 100 µM, a TGI (MDA-MB-435) of over 100 µM and a TGI (HOP-62 NSCLC) of over 100 µM. For the same compound, the TGI (LOX IMVI melanoma) was over 100 µM, the TGI (786-0 renal) was over 100 µM and the TGI (RPMI-8226 leukemia) was over 100 µM. The TGI (SNB-75 CNS) was over 100 µM, the TGI (SK-OV-3 ovarian) was over 100 µM and the TGI (SR leukemia) was over 100 µM. The TGI (MCF7 breast) was over 100 µM, the TGI (MDA-N) was over 100 µM and the TGI (SF-295 CNS) was over 100 µM. The TGI (NCI-H460 lung) was over 100 µM, the TGI (CAKI-1 renal) was over 100 µM and the TGI (HOP-92 NSCLC) was over 100 µM. For the same compound, the TGI (CCRF-CEM leukemia) was over 100 µM, the TGI (HL-60(TB) leukemia) was over 100 µM and the TGI (KM12 colon) was over 100 µM. The TGI (MOLT-4 leukemia) was over 100 µM, the TGI (K-562 leukemia) was over 100 µM and the TGI (IGROV1 ovarian) was over 100 µM. It also gave a TGI (BT-549 breast) of over 100 µM, a TGI (HS 578T breast) of over 100 µM and a TGI (RXF 393 renal) of over 100 µM. The TGI (HCT-15 colon) was over 100 µM, the TGI (HCC-2998 colon) was over 100 µM and the TGI (HCT-116 colon) was over 100 µM. The TGI (SF-268 CNS) was over 100 µM and the TGI (NCI-H23 lung) was over 100 µM.
For `O=c1c2c3c(sc2nc(CN2CCNCC2)n1-c1ccccc1)CCCC3`, the TGI (T-47D breast) was over 100 µM, the TGI (M14 melanoma) was over 100 µM and the TGI (COLO 205 colon) was over 100 µM. For the same compound, the TGI (UACC-257 melanoma) was over 100 µM, the TGI (UACC-62 melanoma) was over 100 µM and the TGI (TK-10 renal) was over 100 µM. For the same compound, the TGI (UO-31 renal) was over 100 µM, the TGI (OVCAR-3 ovarian) was over 100 µM and the TGI (A549 NSCLC) was over 100 µM. It also gave a TGI (OVCAR-4 ovarian) of 82.9 µM, a TGI (SNB-19 CNS) of over 100 µM and a TGI (MDA-MB-231 breast) of over 100 µM. For the same compound, the TGI (SW-620 colon) was over 100 µM, the TGI (OVCAR-5 ovarian) was over 100 µM and the TGI (DU-145 prostate) was over 100 µM. For the same compound, the TGI (EKVX NSCLC) was over 100 µM, the TGI (SK-MEL-2 melanoma) was over 100 µM and the TGI (ACHN renal) was over 100 µM. The TGI (U251 CNS) was over 100 µM, the TGI (SK-MEL-5 melanoma) was over 100 µM and the TGI (OVCAR-8 ovarian) was over 100 µM. For the same compound, the TGI (NCI/ADR-RES ovarian) was over 100 µM, the TGI (MALME-3M melanoma) was over 100 µM and the TGI (PC-3 prostate) was over 100 µM. It also gave a TGI (HT29 colon) of over 100 µM, a TGI (SN12C renal) of over 100 µM and a TGI (SK-MEL-28 melanoma) of over 100 µM. For the same compound, the TGI (HOP-62 NSCLC) was over 100 µM, the TGI (LOX IMVI melanoma) was over 100 µM and the TGI (786-0 renal) was over 100 µM. It also gave a TGI (RPMI-8226 leukemia) of over 100 µM, a TGI (SNB-75 CNS) of over 100 µM and a TGI (SK-OV-3 ovarian) of over 100 µM. The TGI (SR leukemia) was over 100 µM, the TGI (MCF7 breast) was over 100 µM and the TGI (MDA-N) was over 100 µM. For the same compound, the TGI (SF-295 CNS) was over 100 µM, the TGI (NCI-H460 lung) was over 100 µM and the TGI (CAKI-1 renal) was over 100 µM. The TGI (HOP-92 NSCLC) was over 100 µM, the TGI (NCI-H226 lung) was over 100 µM and the TGI (A498 renal) was over 100 µM. The TGI (CCRF-CEM leukemia) was over 100 µM, the TGI (NCI-H522 lung) was over 100 µM and the TGI (HL-60(TB) leukemia) was over 100 µM. For the same compound, the TGI (KM12 colon) was over 100 µM, the TGI (MOLT-4 leukemia) was over 100 µM and the TGI (K-562 leukemia) was over 100 µM. It also gave a TGI (IGROV1 ovarian) of over 100 µM, a TGI (BT-549 breast) of over 100 µM and a TGI (HS 578T breast) of over 100 µM. The TGI (RXF 393 renal) was over 100 µM, the TGI (HCT-15 colon) was over 100 µM and the TGI (HCC-2998 colon) was over 100 µM. For the same compound, the TGI (HCT-116 colon) was over 100 µM, the TGI (SF-268 CNS) was over 100 µM and the TGI (NCI-H23 lung) was over 100 µM.
